Laboratory results reported in ChEMBL document CHEMBL5230100, “Novel quinazoline-based EGFR kinase inhibitors: A review focussing on SAR and molecular docking studies (2015-2019)” (Eur J Med Chem, 2020).
Values belong to the compound of their own block, whether it stands above or below them.

Tests used:
A549 [1] = assay: Induction of apoptosis in human A549 cells assessed as late apoptotic cells measured after 48 hrs by Annexin V-FITC/ Propidium iodide staining based flow cytometry relative to control; type: functional
A-431 [2] = assay: Antiproliferative activity against human A-431 cells assessed as cell growth inhibition incubated for 24 hrs by MTT assay; type: functional
Caspase-3 (Homo sapiens) = Caspase-3 (Homo sapiens) (UniProt P42574); assay: Activation of caspase 3 (unknown origin); conditions: filed as activator
Caspase-3 (Homo sapiens), sequence (P42574 29-175 limits assumed): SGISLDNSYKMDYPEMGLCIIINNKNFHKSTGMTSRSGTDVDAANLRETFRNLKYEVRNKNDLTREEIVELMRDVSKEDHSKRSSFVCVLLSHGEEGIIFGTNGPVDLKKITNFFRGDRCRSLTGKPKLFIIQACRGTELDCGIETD
Caspase-3 (Homo sapiens), sequence (P42574 176-277 limits assumed): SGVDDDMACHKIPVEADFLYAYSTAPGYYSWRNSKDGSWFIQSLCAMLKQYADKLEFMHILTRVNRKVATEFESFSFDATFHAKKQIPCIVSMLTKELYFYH

A549 [3] = assay: Induction of apoptosis in human A549 cells measured after 48 hrs by Annexin V-FITC/ Propidium iodide staining based flow cytometry relative to control; type: functional
[4] = target: T1, Epidermal growth factor receptor (Homo sapiens, UniProt P00533)
T1 sequence (P00533 whole entry): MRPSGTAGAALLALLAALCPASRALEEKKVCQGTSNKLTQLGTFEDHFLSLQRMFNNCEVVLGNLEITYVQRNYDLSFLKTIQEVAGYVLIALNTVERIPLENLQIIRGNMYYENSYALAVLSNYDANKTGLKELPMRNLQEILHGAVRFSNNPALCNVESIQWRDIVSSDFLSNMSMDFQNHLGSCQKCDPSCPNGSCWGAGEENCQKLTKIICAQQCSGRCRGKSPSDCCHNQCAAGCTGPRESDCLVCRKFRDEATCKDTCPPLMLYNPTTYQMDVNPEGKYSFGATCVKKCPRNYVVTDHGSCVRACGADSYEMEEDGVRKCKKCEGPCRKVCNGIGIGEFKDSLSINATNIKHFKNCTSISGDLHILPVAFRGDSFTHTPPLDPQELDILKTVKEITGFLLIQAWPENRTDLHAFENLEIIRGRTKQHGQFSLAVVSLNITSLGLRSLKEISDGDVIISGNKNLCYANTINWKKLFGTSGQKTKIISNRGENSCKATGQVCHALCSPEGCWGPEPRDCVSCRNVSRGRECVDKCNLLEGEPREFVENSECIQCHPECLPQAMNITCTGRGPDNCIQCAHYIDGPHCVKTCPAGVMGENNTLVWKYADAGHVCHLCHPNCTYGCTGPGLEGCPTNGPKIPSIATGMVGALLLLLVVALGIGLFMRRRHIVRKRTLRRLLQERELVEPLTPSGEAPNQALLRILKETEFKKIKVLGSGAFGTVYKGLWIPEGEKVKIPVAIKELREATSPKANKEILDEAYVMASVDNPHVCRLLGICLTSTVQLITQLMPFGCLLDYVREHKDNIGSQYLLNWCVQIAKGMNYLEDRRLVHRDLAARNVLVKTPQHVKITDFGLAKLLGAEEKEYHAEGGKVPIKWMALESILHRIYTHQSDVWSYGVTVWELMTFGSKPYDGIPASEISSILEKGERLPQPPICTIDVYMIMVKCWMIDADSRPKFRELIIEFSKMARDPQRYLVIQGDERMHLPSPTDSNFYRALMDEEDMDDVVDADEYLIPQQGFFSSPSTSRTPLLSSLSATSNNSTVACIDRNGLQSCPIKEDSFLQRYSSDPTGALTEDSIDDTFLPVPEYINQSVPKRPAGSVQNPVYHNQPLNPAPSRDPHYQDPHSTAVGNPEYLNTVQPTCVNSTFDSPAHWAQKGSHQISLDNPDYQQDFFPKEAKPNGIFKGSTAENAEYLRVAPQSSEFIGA

[5] = target: T2, Epidermal growth factor receptor (Homo sapiens, UniProt P00533, T790M/L858R)
T2 sequence (P00533 25-1210 T790M/L858R limits assumed): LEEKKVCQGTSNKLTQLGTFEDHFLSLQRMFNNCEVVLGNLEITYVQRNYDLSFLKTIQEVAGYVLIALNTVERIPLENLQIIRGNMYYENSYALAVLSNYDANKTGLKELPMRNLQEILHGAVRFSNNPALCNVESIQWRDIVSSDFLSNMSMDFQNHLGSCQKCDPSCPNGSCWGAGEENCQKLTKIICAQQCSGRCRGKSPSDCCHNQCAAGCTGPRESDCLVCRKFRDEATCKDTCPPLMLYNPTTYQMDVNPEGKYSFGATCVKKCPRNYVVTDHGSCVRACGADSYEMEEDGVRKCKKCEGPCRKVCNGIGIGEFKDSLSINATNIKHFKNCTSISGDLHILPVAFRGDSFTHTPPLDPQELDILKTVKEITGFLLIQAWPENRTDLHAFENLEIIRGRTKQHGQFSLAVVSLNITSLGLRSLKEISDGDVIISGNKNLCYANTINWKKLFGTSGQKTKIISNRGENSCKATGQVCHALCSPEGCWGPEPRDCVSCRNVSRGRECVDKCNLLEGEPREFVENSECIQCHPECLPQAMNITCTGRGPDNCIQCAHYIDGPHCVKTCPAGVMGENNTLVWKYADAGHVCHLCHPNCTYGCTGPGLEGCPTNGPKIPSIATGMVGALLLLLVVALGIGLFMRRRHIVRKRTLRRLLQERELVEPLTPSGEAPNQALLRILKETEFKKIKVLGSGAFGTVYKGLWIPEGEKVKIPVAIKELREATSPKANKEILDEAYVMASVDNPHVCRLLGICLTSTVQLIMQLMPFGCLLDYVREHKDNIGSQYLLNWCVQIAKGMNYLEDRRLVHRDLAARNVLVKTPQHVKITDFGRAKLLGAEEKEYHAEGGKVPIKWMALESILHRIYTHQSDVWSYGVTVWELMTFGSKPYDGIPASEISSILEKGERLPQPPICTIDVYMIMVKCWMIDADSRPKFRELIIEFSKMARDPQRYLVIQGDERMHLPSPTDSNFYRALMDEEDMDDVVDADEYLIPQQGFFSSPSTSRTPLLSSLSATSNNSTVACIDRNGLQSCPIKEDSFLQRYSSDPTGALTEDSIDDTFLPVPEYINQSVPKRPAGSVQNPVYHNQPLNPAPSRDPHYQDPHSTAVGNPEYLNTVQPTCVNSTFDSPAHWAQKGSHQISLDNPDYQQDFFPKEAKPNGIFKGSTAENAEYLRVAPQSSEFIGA

A549 [6] = assay: cells; type: functional, cell-based; conditions: Homo sapiens, A549, 72 h
Description: Antiproliferative activity against human A549 cells assessed as cell growth inhibition incubated for 72 hrs by MTT assay

MCF7 = assay: Antiproliferative activity against human MCF7 cells assessed as cell growth inhibition incubated for 72 hrs by MTT assay; type: functional, cell-based; conditions: MCF7, 72 h
HepG2 [7] = assay: Antiproliferative activity against human HepG2 cells assessed as cell growth inhibition incubated for 72 hrs by MTT assay; type: functional, cell-based; conditions: HepG2, 72 h
A-431 [8] = assay: cells; type: functional, cell-based; conditions: Homo sapiens, A-431, 48 h
Description: Antiproliferative activity against human A-431 cells assessed as cell growth inhibition incubated for 48 hrs by MTT assay

A549 [9] = assay: cells; type: functional, cell-based; conditions: Homo sapiens, A549, 48 h
Description: Antiproliferative activity against human A549 cells assessed as cell growth inhibition incubated for 48 hrs by MTT assay

MDA-MB-231 [10] = assay: Antiproliferative activity against human MDA-MB-231 cells assessed as cell growth inhibition incubated for 48 hrs by MTT assay; type: functional, cell-based; conditions: MDA-MB-231, 48 h
[11] = target: T1, Epidermal growth factor receptor; remark: listed apart in the source
cells = type: functional, cell-based; conditions: Homo sapiens, HBE, 72 h
Description: Antiproliferative activity against human HBE cells assessed as cell growth inhibition incubated for 72 hrs by MTT assay

HCC827 = assay: cells; type: functional, cell-based; conditions: Homo sapiens, HCC827, 72 h
Description: Antiproliferative activity against human HCC827 cells assessed as cell growth inhibition incubated for 72 hrs by MTT assay

NCI-H1975 = assay: Antiproliferative activity against human NCI-H1975 cells assessed as cell growth inhibition incubated for 72 hrs by MTT assay; type: functional, cell-based; conditions: NCI-H1975, 72 h
[12] = target: Epidermal growth factor receptor (Homo sapiens, UniProt P00533, L858R/T790M)
Epidermal growth factor receptor (Homo sapiens, UniProt P00533, L858R/T790M), sequence (P00533 25-1210 T790M/L858R limits assumed): as above

A-431 [13] = assay: cells; type: functional, cell-based; conditions: Homo sapiens, A-431, 72 h
Description: Antiproliferative activity against human A-431 cells assessed as cell growth inhibition incubated for 72 hrs by MTT assay

[14] = target: T1, Epidermal growth factor receptor; assay: Inhibition of human EGFR incubated for 1 hrs in presence of ATP by ELISA assay
A549 [15] = assay: Anticancer activity against human A549 cells assessed as cell growth inhibition incubated for 24 hrs by MTT assay; type: functional, cell-based; conditions: A549, 24 h
[16] = target: Receptor tyrosine-protein kinase erbB-2 (Homo sapiens, UniProt P04626)
Receptor tyrosine-protein kinase erbB-2, sequence (P04626 whole entry): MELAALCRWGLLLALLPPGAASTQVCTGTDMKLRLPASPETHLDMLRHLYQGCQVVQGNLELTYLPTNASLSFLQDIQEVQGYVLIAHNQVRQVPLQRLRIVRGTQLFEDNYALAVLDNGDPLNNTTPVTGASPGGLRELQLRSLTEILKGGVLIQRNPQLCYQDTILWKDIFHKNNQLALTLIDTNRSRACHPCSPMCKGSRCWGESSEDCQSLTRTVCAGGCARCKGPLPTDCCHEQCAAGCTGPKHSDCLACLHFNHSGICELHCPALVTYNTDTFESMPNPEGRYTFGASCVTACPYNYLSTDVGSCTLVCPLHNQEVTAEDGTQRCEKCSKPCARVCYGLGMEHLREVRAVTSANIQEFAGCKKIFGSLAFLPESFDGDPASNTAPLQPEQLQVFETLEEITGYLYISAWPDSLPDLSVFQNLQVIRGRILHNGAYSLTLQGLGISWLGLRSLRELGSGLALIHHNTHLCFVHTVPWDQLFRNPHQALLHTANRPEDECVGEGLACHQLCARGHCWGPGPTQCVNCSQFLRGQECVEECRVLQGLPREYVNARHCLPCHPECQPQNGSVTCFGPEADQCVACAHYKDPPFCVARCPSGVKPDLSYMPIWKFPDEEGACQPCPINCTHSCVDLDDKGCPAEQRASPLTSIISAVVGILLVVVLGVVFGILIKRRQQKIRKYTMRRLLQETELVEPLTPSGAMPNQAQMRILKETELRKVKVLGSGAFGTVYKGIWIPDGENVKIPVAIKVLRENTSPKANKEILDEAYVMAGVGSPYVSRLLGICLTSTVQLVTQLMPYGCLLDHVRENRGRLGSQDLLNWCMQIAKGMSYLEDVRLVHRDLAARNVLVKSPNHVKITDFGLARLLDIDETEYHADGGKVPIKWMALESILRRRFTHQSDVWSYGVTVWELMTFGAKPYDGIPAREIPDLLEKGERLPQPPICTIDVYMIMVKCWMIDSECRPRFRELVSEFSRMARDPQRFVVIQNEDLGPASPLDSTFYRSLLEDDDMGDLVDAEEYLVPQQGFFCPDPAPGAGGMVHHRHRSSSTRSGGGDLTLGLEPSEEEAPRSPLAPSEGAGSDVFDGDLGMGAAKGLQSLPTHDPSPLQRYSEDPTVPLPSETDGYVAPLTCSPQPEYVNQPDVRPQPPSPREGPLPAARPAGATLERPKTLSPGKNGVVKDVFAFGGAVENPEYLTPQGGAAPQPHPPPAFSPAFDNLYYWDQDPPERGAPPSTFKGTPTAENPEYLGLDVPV

HepG2 [17] = assay: cells; type: functional, cell-based; conditions: Homo sapiens, HepG2, 48 h
Description: Antiproliferative activity against human HepG2 cells assessed as cell growth inhibition incubated for 48 hrs by MTT assay

MDA-MB-231 [18] = assay: Antiproliferative activity against human MDA-MB-231 cells assessed as cell growth inhibition incubated for 24 hrs by MTT assay; type: functional, cell-based; conditions: MDA-MB-231, 24 h
A549 [19] = assay: Antiproliferative activity against human A549 cells assessed as cell growth inhibition incubated for 24 hrs by MTT assay; type: functional, cell-based; conditions: A549, 24 h
[20] = target: T2, Epidermal growth factor receptor; assay: Inhibition of EGFR L858R/T790M mutant (unknown origin) incubated for 10 mins in presence of ATP by mobility shift assay
[21] = target: T1, Epidermal growth factor receptor; assay: Inhibition of EGFR (unknown origin) incubated for 10 mins in presence of ATP by mobility shift assay
PC-3 = assay: Antiproliferative activity against human PC-3 cells assessed as cell growth inhibition incubated for 72 hrs by MTT assay; type: functional, cell-based; conditions: PC-3, 72 h

SMILES: CN(C)C/C=C/C(=O)Nc1cc2c(Nc3ccc(F)c(Cl)c3)ncnc2cc1O[C@H]1CCOC1 [AFATINIB]
- Activity (A549 [1]): 13.53%

- Activity (Caspase-3 (Homo sapiens)): 480 pg/mL
SMILES: C#Cc1cccc(Nc2ncnc3cc(OCCOC)c(OCCOC)cc23)c1 [ERLOTINIB]
- IC5 (A-431 [2]): 3 µM
- Activity (A549 [3]): 53.9%

SMILES: O=C(N/N=C/c1cnc(N2CCCC2)nc1)Nc1cc2c(Nc3ccc(F)c(Cl)c3)ncnc2cc1O[C@H]1CCOC1
- IC50 [4]: 6.3 nM
- IC50 [5]: 8.4 nM
- IC50 (A549 [6]): 5900 nM
- IC50 (MCF7): 2370 nM
- IC50 (HepG2 [7]): 4630 nM

- IC50 (A-431 [8]): 1680 nM
- IC50 (A549 [9]): 10900 nM
- IC50 (MDA-MB-231 [10]): 10200 nM
- IC50 [11]: 21.4 nM
SMILES: CCCN(c1ccc(F)c(Cl)c1)c1ncnc2cc(OC)c(OCCCN3CCOCC3)cc12

- IC50 (cells): 34000 nM
- IC50 (HCC827): 650 nM
- IC50 (NCI-H1975): 8700 nM
- IC50 [12]: 4.3 nM
- IC50 (A549 [6]): 32400 nM
- IC50 (A-431 [13]): 13400 nM
SMILES: C=CC(=O)Nc1ccccc1Nc1ncnc2cc(OC)c(OCCN3CCOCC3)cc12

- IC50 [14]: 12 nM
- IC50 (A549 [15]): 181 nM
- IC50 [16]: 21 nM
SMILES: Cc1ccccc1NC(=O)CSc1nc2cc3ccccc3cc2c(=O)n1-c1ccc(S(N)(=O)=O)cc1

SMILES: CN(C)C/C=C/C(=O)Nc1cc2c(N3CCc4ccccc43)ncnc2cc1O[C@@H]1CCOC1
- Activity (A549 [1]): 14.59%

- IC50 (HepG2 [17]): 74600 nM
- IC50 (A549 [9]): 138000 nM
SMILES: O=C(O)c1cc(O)c2c(c1)C(=O)c1cccc(O)c1C2=O [RHEIN]

- Activity (Caspase-3 (Homo sapiens)): 546 pg/mL
- IC50 (MDA-MB-231 [18]): 310 nM
SMILES: Cc1ccc(NC(=O)CSc2nc3cc4ccccc4cc3c(=O)n2-c2ccc(S(N)(=O)=O)cc2)cc1C

- IC50 (A549 [15]): 727 nM
SMILES: CCc1cccc(NC(=O)CSc2nc3cc4ccccc4cc3c(=O)n2-c2ccc(S(N)(=O)=O)cc2)c1

- IC50 (A549 [19]): > 50000 nM
SMILES: COc1cc2ncnc(NCc3ccc(Cl)s3)c2cc1OC
- IC5 (A-431 [2]): 3.4 µM

SMILES: CN(C)CCn1cccc1/C=N/NC(=O)Nc1cc2c(Nc3ccc(F)c(Cl)c3)ncnc2cc1O[C@H]1CCOC1
- IC50 [20]: 5.6 nM
- IC50 (A549 [6]): 1840 nM
- IC50 (MCF7): 4820 nM
- IC50 [21]: 0.05 nM
- IC50 (PC-3): 3840 nM
- IC50 (HepG2 [7]): 40 nM
